Assays:
Streptococcus spp. FA-1 = experiment: Growth inhibition of oral microorganisms in vitro, pour plates; type: cell-based; conditions: Table IX; for Bacterial Population, Experimental: control 2 × 10^8 to 5 × 10^8; for Inhibition (growth): pour plates incubated 48 - 72 hours
Protocol: (§1) (a)Determined on freshly grown pure cultures. Pour plates were incubated

L. casei = experiment: as above; type: cell-based, Lactobacillus casei; conditions: Table IX; for Bacterial Population, Experimental: control 8 × 10^8 to 1 × 10^9; for Inhibition (growth): pour plates incubated 48 - 72 hours
Protocol: as §1

[1] = test system: Lactobacillus casei and Streptococcus sp. FA-1; experiment: Acid-production inhibition by broth-tube assay, 0.1 percent of compound; type: cell-based; conditions: for inhibition at 0.1 %: Table X, 0.1 percent of compound, read-out: Activity, Acid-Production Inhibition%
Protocol: ^(a) Activity was measured by broth-tube assay to determine percent
(§2) acid-production inhibition obtained by Lactobacillus casei and
Streptococcus sp. FA-1 in the presence of 0.1 percent of compound.
^(a) Activity was measured by broth-tube assay to determine percent o
as §2
Streptococcus sp. FA-1 in the presence of 0.1% of compound. Symbols

[2] = In vivo caries evaluation, Osborne-Mendel strain 1 rat; parameters: species or system rat (Osborne-Mendel strain 1); Caries Score, Mean Incidence / Caries Score, Mean Extent: scale not given here; conditions: Table II, 90 days; for Caries Score, Mean Incidence / Caries Score, Mean Extent: 1 percent in diet; for Caries Score, Mean Incidence: RCD control 19.0 (octan-), 14.1 (nonan-), 17.6 (decan-), 22.3 (undecylenic); for Caries Score, Mean Extent: RCD control 49.6 (octan-), 34.3 (nonan-), 46.0 (decan-), 54.6 (undecylenic); for Caries Extent Reduction, statistical evaluation / Caries Incidence Reduction, statistical evaluation: Student's test, 95 percent confidence limit
Description: (§3) Standard laboratory techniques were used to complie the data presented. In each case the aldehyde was incorporated into each specimen's food in a one percent, by weight, quantity, over a period of several weeks. In all cases, caries reduction was noted.
(§4) The aldehydes tested in vivo were pyruvaldehyde, d,1-glyceraldehyde, crystalline dimer, glycolaldehyde, octanaldehyde, nonanaldehyde, decanaldehyde, undecylenic aldehyde, and lauric aldehyde. The polyaldehydes tested were dialdehyde starch, dialdehyde starch 50 percent oxidized, dialdehyde starch 90 percent oxidized, and dialdehyde galactomannan gum.
(§5) ^(a) Agents were incorporated in the diet at a 1 percent level.

[3] = In vivo caries evaluation, laboratory animals (summary); conditions: one percent level in diet
Description: as §3, §4

[4] = In vivo caries evaluation, Osborne-Mendel strain 2 rat; parameters: species or system rat (Osborne-Mendel strain 2); Caries Score, Mean Incidence / Caries Score, Mean Extent: scale not given here; conditions: Table II, 90 days
Description: as §3, §4, §5

[5] = In vivo caries evaluation, albino hamster; conditions: Table II, 59 days
Description: as §3, §4, §5

oral microorganisms [6] = experiment: Acid production inhibition in vitro (summary); type: cell-based; conditions: in words, summary of tables
Protocol: (§6) Other in vitro evaluations utilized a broth tube analysis of representative anticaries aldehydes incorporated in the vehicles of this invention against cultures of acid producing microorganisms normally present in the mouth. Standard laboratory procedures were utilized throughout to evaluate the acid production inhibition and growth inhibition over the incubation time of up to 24 hours.

oral microorganisms [7] = experiment: Growth inhibition in vitro (summary); type: cell-based; conditions: in words, summary of tables
Protocol: as §6

[8] = Student's test, 95 percent confidence limit

Compound | Bacterial Population, Experimental (Streptococcus spp. FA-1) | Inhibition (growth) (Streptococcus spp. FA-1) | Bacterial Population, Experimental (L. casei) | Inhibition (growth) (L. casei) | inhibition at 0.1 % [1] | Caries Score, Mean Incidence [2] | Caries Score, Mean Extent [2] | Caries Extent Reduction, statistical evaluation [2] | Caries Incidence Reduction, statistical evaluation [2] | Anticaries effect in laboratory animals [3] | further results
CCCCCCCCCC(C)C=O (stereo not drawn) [Methylnonylacetaldehyde] | 0 | 100% | < 1 × 10^3 | > 99.99% | 90 to 98% |  |  |  |  |  | 
CCCCCCCCC=O [Nonanaldehyde] | 0 | 100% | 4 × 10^4 | > 99.99% | 99 to 100% | 5.1 | 10.2 | Significant | Significant | significant anticaries activity | 
CCCCCCCC=O [Octanaldehyde] | 9 × 10^3 | > 99.99% | 2 × 10^7 | 97% | 99 to 100% | 9.8 | 20.4 | Significant | Significant | significant anticaries activity | Caries Score, Mean Incidence ([4]; 1 percent in diet, L2000 control 17.4): 2.9; Caries Score, Mean Extent ([4]; 1 percent in diet, L2000 control 31.3): 4.1; Caries Extent Reduction, statistical evaluation [4, 8]: Significant; Caries Incidence Reduction, statistical evaluation [4, 8]: Significant; Caries Score, Mean Incidence ([5]; 1 percent in diet, L2000 control 39.3): 18.6; Caries Score, Mean Extent ([5]; 1 percent in diet, L2000 control 117.6): 53.8; Caries Extent Reduction, statistical evaluation [5, 8]: Significant; Caries Incidence Reduction, statistical evaluation [5, 8]: Significant
O=CCCC=O [Succinic dialdehyde] |  |  |  |  |  |  |  |  |  |  | Activity, Acid-Production Inhibition, % ([1]; Table XII, 0.1% of compound): ++++ (99 to 100)
CC=CCCCCCCCC=O [Undecylenic aldehyde] | 0 | 100% | 1 × 10^2 | > 99.99% | 99 to 100% | 7.4 | 16.4 | Significant | Significant | significant anticaries activity | 
CCCCCCCCCCC=O [Undecylic aldehyde] | 2 × 10^3 | > 99.99% | 5 × 10^4 | > 99.99% | 99 to 100% |  |  |  |  |  | 
CCCCCCC=O [n-Heptaldehyde] | 3 × 10^8 | Insignificant | 1 × 10^9 | None | 75 to 89% |  |  |  |  |  | Acid Production Inhibition (oral microorganisms [6]): excellent acid production inhibition; Growth Inhibition (oral microorganisms [7]): little or no growth inhibition
CCCCCC=O [n-Hexaldehyde] | 4 × 10^8 | Insignificant | 1 × 10^9 | None | 25 to 74% |  |  |  |  |  | Acid Production Inhibition (oral microorganisms [6]): excellent acid production inhibition; Growth Inhibition (oral microorganisms [7]): little or no growth inhibition

From US4048299A, “Anticaries confectionaries and oral health products” (William Wrigley, Jr. Co., priority 1970, dated 1977)
